Results: US20070031342A1, “Sustained release microparticles for pulmonary delivery” (Nektar Therapeutics, priority 2005, published 2007)
Read-outs that look alike come from different tables or passages of the source.

Columns and labels:
[1] = cited from earlier work
[2] = Rabbit aerosol inhalation model, serum sCT concentration after intratracheal aerosol administration; assay type: in vivo; conditions: single intratracheal aerosol administration
Description: The in vivo dissolution properties of the composition were determined in a rabbit aerosol inhalation model. In this test, the serum sCT concentration was measured for increasing time following intratracheal aerosol administration for sustained release microparticles comprising 20% w/w encapsulated sCT and compared to the concentration of a control sample comprising neat 20% w/w sCT powder. […] In contrast, the absorption of the encapsulated sCT of the microparticles reaches its maximum blood levels at 4 hours post administration and are sustained to at least 24 hours. […] Accordingly, the encapsulated sCT microparticles prepared according to the above method provide improved sustain release results over the unencapsulated sCT, by increasing the duration over which the drug is released to provide a more controlled dose of the sCT drug.

| tmax ([2]; serum, inhaled or intranasal, read-out: time to maximum concentration in the blood (converted)) [min] | time after which blood levels return to baseline [2] [h] | Structure (SMILES) | tmax ([1]; following inhalation delivery, Pulmicort Turbuhaler) [min] | absolute bioavailability ([1]; inhaled) [%] | bioavailability ([1]; nasal) [%] | bioavailability ([1]; oral) [%] |
| --- | --- | --- | --- | --- | --- | --- |
|  |  | CCCC1O[C@@H]2C[C@H]3[C@@H]4CCC5=CC(=O)C=C[C@]5(C)[C@H]4[C@@H](O)C[C@]3(C)[C@]2(C(=O)CO)O1 (stereo partly drawn) [budesonide] | ~30 | 39 | 21±6 | 10.7±4.3 |
| 15 | 3 | CC(C)C[C@H](NC(=O)[C@H](CCCCN)NC(=O)CNC(=O)[C@H](CC(C)C)NC(=O)[C@@H](NC(=O)[C@@H]1CSSC[C@H](N)C(=O)N[C@@H](CO)C(=O)N[C@@H](CC(N)=O)C(=O)N[C@@H](CC(C)C)C(=O)N[C@@H](CO)C(=O)N[C@@H]([C@@H](C)O)C(=O)N1)C(C)C)C(=O)N[C@@H](CO)C(=O)N[C@@H](CCC(N)=O)C(=O)N[C@@H](CCC(=O)O)C(=O)N[C@@H](CC(C)C)C(=O)N[C@@H](Cc1c[nH]cn1)C(=O)N[C@@H](CCCCN)C(=O)N[C@@H](CC(C)C)C(=O)N[C@@H](CCC(N)=O)C(=O)N[C@H](C(=O)N[C@@H](Cc1ccc(O)cc1)C(=O)N1CCC[C@H]1C(=O)N[C@@H](CCCNC(=N)N)C(=O)N[C@H](C(=O)N[C@@H](CC(N)=O)C(=O)N[C@H](C(=O)NCC(=O)N[C@@H](CO)C(=O)NCC(=O)N[C@H](C(=O)N1CCC[C@H]1C(N)=O)[C@@H](C)O)[C@@H](C)O)[C@@H](C)O)[C@@H](C)O [neat salmon calcitonin] |  |  |  |  |
